# Read-outs that look alike come from different tables or passages of the source.
# How the values were obtained:
# [1] = molecular target: T1, (Rhodococcus erythropolis, UniProt P13448+P13449); experiment: Preservation of nitrile hydration activity of cell extract prepared as in Comparison Example 1, stabilizer added to extract; type: biochemical, Corynebacterium strain N-774(FERM P-4446)
# T1 sequence (P13448 2-207 limits assumed): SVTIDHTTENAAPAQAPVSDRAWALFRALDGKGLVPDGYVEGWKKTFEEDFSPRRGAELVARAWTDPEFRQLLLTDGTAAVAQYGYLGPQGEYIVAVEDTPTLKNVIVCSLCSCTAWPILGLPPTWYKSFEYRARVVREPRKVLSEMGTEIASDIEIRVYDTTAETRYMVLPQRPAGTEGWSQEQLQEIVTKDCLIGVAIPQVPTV
# T1 sequence (P13449 1-212): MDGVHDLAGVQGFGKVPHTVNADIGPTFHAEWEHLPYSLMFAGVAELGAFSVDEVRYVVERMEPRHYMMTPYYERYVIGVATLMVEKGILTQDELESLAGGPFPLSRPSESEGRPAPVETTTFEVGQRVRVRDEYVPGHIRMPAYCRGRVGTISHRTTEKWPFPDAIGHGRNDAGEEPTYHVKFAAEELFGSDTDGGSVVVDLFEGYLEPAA
# [2] = molecular target: immobilized nitrilase (Rhodococcus erythropolis, UniProt P13448+P13449); experiment: Preservation of nitrile hydration activity of immobilized enzyme (polyacrylamide gel); type: biochemical, Corynebacterium strain N-774(FERM P-4446); settings: 0° C., 20 minutes
# Procedure: 40 ml of a cell extract prepared as in Example 1, 4.5 g of acrylamide, 0.5 g of N,N'-methylenebisacrylamide, and 40 ml of M/20 phosphate buffer (containing 10 g/l of ammonium isobutyrate, pH 6.0) were mixed to form a homogeneous suspension. To this suspension were added 5 ml of a 5% aqueous solution of dimethylaminopropionitrile and 10 ml of a 1.0% aqueous solution of potassium persulfate, and the mixture was maintained at 10° C. for 30 minutes to cause polymerization. A mass of cell-containing gel obtained was crushed into small particles, which were thoroughly washed with M/20 phosphate buffer containing 5 g/l of ammonium isobutyrate, pH 7.0, whereby approximately 90 g of an immobilized enzyme was obtained.
# The washed, immobilized enzyme thus obtained was placed in the same buffer containing 5 g/l of isobutyric acid and left standing at 20° C. for 3 days.
# The nitrile hydration activity levels of the gel samples were measured as follows before and after the respective immobilized enzymes were left standing.
# 1 g of immobilized gel was mixed with 5 g of acrylonitrile and 97 ml of M/20 phosphate buffer (pH 7.7), and the mixture was subjected to reaction at 0° C. for 20 minutes with stirring. The quantities of acrylamide in the respective reaction solutions were determined by gas chromatography.
# [3] = 48 h; 10 mg organic acid in 2.5 ml buffer + 2.5 ml extract; pH 6.5; 20° C. for 2 days; read-out: % Residual Activity (Organic Acid Added)
# [4] = 48 h; 10 mg amide in 2.5 ml buffer + 2.5 ml extract; pH 6.5; 20° C. for 2 days; read-out: % Residual Activity (Amide Added)
# [5] = 48 h, pH 6.5, read-out: % Residual Activity (Organic Acid Added)
# [6] = 48 h, pH 6.5; read-out: % Residual Activity (Amide Added)
# [7] = 48 h, pH 6.5; read-out: % Residual Activity (Organic Acid Added)
# [8] = 48 h, pH 6.5; read-out: % Residual Activity (Nitrile Added)
# [9] = 48 h; 10 mg nitrile in 2.5 ml buffer + 2.5 ml extract (0.8×10^3 U/ml); pH 6.5; 20° C. for 2 days; read-out: % Residual Activity (Nitrile Added)
# [10] = pH 6, read-out: % Residual Activity
# [11] = stabilizer concentration 0.01 g/l; pH 6.0; extract 0.7×10^3 U/ml; 20° C. for 2 days; read-out: % Residual Activity
# [12] = stabilizer concentration 5.0 g/l; pH 6.0; extract 0.7×10^3 U/ml; 20° C. for 2 days; read-out: % Residual Activity
# [13] = stabilizer concentration 20 g/l; pH 6.0; […]; 20° C. for 2 days; read-out: % Residual Activity
# [14] = stabilizer concentration 50 g/l; pH 6.0; extract 0.7×10^3 U/ml; 20° C. for 2 days; read-out: % Residual Activity
# [15] = 48 h, pH 6, read-out: % Residual Activity
# [16] = 48 h, pH 7, read-out: % Residual Activity
# [17] = stabilizer concentration 1.0 g/l; pH 6.0; […]; 20° C. for 2 days; read-out: % Residual Activity
compound,measurement,setting,value
O=C(O)C(O)CO (racemic) [DL-Glyceric acid],activity at 2000 µg/mL,[1]; [3],60%
CC(N)=O [Acetamide],activity at 2000 µg/mL,[1]; [4],57%
CC(=O)O [Acetic acid],activity at 2000 µg/mL,[1]; [5],55%
CC#N [Acetonitrile],activity at 2000 µg/mL,"[1]; 48 h, pH 6.5, read-out: % Residual Activity (Nitrile Added)",61%
C=CC(N)=O [Acrylamide],activity at 2000 µg/mL,[1]; [6],63%
C=CC(=O)O [Acrylic acid],activity at 2000 µg/mL,[1]; [7],53%
C=CC#N [Acrylonitrile],activity at 2000 µg/mL,[1]; [8],56%
N#CCCCCC#N [Adiponitrile],activity at 2000 µg/mL,[1]; [8],68%
NC(=O)c1ccccc1 [Benzamide],activity at 2000 µg/mL,[1]; [4],47%
O=C(O)c1ccccc1 [Benzoic acid],activity at 2000 µg/mL,[1]; [7],48%
N#Cc1ccccc1 [Benzonitrile],activity at 2000 µg/mL,[1]; [9],44%
CCCC(=O)O [Butyric acid],remaining activity at 100 µg/mL,[1]; [10],87%
same,remaining activity at 10 µg/mL,[1]; [11],63%
same,remaining activity at 1000 µg/mL,[1]; stabilizer concentration 1.0 g/l; pH 6.0; extract 0.7×10^3 U/ml; 20° C. for 2 days; read-out: % Residual Activity,92%
same,remaining activity at 5000 µg/mL,[1]; [12],90%
same,remaining activity at 20000 µg/mL,[1]; [13],85%
same,remaining activity at 50000 µg/mL,[1]; [14],67%
CCCCCC(=O)O [Caproic acid],activity at 2000 µg/mL,[1]; [7],78%
NC(=O)CCl [Chloroacetamide],activity at 2000 µg/mL,"[1]; 48 h, pH 6.5, read-out: % Residual Activity (Amide Added)",60%
N#CCCl [Chloroacetonitrile],activity at 2000 µg/mL,[1]; [8],58%
N#CCC(N)=O [Cyanoacetamide],activity at 2000 µg/mL,[1]; [8],53%
N#CCC(=O)O [Cyanoacetic acid],activity at 2000 µg/mL,[1]; [9],54%
O=CO [Formic acid],activity at 2000 µg/mL,[1]; [5],48%
NCC(N)=O [Glycine amide],activity at 2000 µg/mL,[1]; [4],49%
N#CCN [Glycine nitrile],activity at 2000 µg/mL,[1]; [8],58%
O=C(O)CO [Glycolic acid],activity at 2000 µg/mL,[1]; [3],52%
O=CC(=O)O [Glyoxylic acid],activity at 2000 µg/mL,[1]; [3],72%
CC(C)C(N)=O [Isobutyramide],activity at 25 mg,[1]; [15],80%
same,activity at 25 mg,"[1]; 48 h, pH 7; read-out: % Residual Activity",74%
same,activity at 2000 µg/mL,[1]; [4],85%
same,activity at 25 mg,[1]; 48 h; pH 5.0; 25 mg stabilizer in 2.5 ml buffer + 2.5 ml extract (1×10^3 U/ml); 20° C. for 2 days; read-out: % Residual Activity,4%
same,activity at 25 mg,[1]; 48 h; pH 8.0; 25 mg stabilizer in 2.5 ml buffer + 2.5 ml extract (1×10^3 U/ml); 20° C. for 2 days; read-out: % Residual Activity,48%
CC(C)C(=O)O [Isobutyric acid],Quant. of AA produced (%) after enzyme was left standing,"[2]; after standing at 20° C. for 3 days in buffer containing 5 g/l of isobutyric acid, 1 g gel",0.60%
same,Quant. of AA produced (%) before enzyme was left standing,"[2]; immobilized gel, 1 g with 5 g acrylonitrile, immobilized and washed with stabilizer",0.71%
same,activity at 25 mg,"[1]; 48 h, pH 5, read-out: % Residual Activity",2%
same,activity at 25 mg,"[1]; 48 h, pH 5.5, read-out: % Residual Activity",82%
same,activity at 25 mg,[1]; [15],83%
same,activity at 2000 µg/mL,[1]; [5],83%
same,activity at 25 mg,[1]; [16],77%
same,activity at 25 mg,"[1]; 48 h, pH 8, read-out: % Residual Activity",42%
CC(C)C#N [Isobutyronitrile],activity at 25 mg,"[1]; 48 h, pH 5; read-out: % Residual Activity",3%
same,activity at 25 mg,[1]; [15],82%
same,activity at 2000 µg/mL,[1]; [8],88%
same,activity at 25 mg,[1]; [16],77%
same,activity at 25 mg,"[1]; 48 h, pH 8; read-out: % Residual Activity",45%
CC(O)C(N)=O (stereo not shown) [Lactamide],activity at 2000 µg/mL,[1]; [4],50%
CC(O)C#N (stereo not shown) [Lactonitrile],activity at 2000 µg/mL,[1]; [8],49%
O=C(O)CC(O)C(=O)O (stereo not shown) [Malic acid],activity at 2000 µg/mL,[1]; [3],43%
NC(=O)CC(N)=O [Malondiamide],activity at 2000 µg/mL,[1]; [4],48%
N#CCC#N [Malononitrile],activity at 2000 µg/mL,[1]; 48 h; pH 6.5; 20° C. for 2 days; read-out: % Residual Activity (Nitrile Added),55%
C=C(C)C(N)=O [Methacrylamide],activity at 2000 µg/mL,[1]; [4],70%
C=C(C)C(=O)O [Methacrylic acid],activity at 2000 µg/mL,[1]; [7],59%
C=C(C)C#N [Methacrylonitrile],activity at 2000 µg/mL,[1]; [8],62%
O=C(O)CCl [Monochloroacetic acid],activity at 2000 µg/mL,[1]; [7],39%
NC(=O)c1cccnc1 [Nicotinamide],activity at 2000 µg/mL,[1]; [6],39%
N#Cc1cccnc1 [Nicotinonitrile],activity at 2000 µg/mL,[1]; [8],43%
O=C(O)CC(=O)C(=O)O [Oxalacetic acid],activity at 2000 µg/mL,[1]; [3],68%
CCC(N)=O [Propionamide],activity at 2000 µg/mL,[1]; [4],83%
CCC(=O)O [Propionic acid],activity at 2000 µg/mL,[1]; [5],78%
CCC#N [Propionitrile],activity at 2000 µg/mL,[1]; [8],83%
NC(=O)CCC(N)=O [Succindiamide],activity at 2000 µg/mL,[1]; [4],63%
O=C(O)CCC(=O)O [Succinic acid],activity at 2000 µg/mL,[1]; [5],59%
N#CCCC#N [Succinonitrile],activity at 2000 µg/mL,[1]; [8],70%
CCCCC(=O)O [Valeric acid],activity at 2000 µg/mL,[1]; [3],81%
CCCC(N)=O [n-Butyramide],activity at 2000 µg/mL,[1]; [4],90%
same,remaining activity at 20000 µg/mL,[1]; [10],78%
same,remaining activity at 10 µg/mL,[1]; [11],60%
same,remaining activity at 100 µg/mL,[1]; stabilizer concentration 0.1 g/l; pH 6.0; […]; 20° C. for 2 days; read-out: % Residual Activity,85%
same,remaining activity at 1000 µg/mL,[1]; [17],85%
same,remaining activity at 5000 µg/mL,[1]; [12],89%
same,remaining activity at 50000 µg/mL,[1]; [14],63%
CCCC#N [n-Butyronitrile],activity at 2000 µg/mL,[1]; [8],93%
same,remaining activity at 100 µg/mL,[1]; [10],82%
same,remaining activity at 10 µg/mL,[1]; stabilizer concentration 0.01 g/l; pH 6.0; […]; 20° C. for 2 days; read-out: % Residual Activity,60%
same,remaining activity at 1000 µg/mL,[1]; [17],88%
same,remaining activity at 5000 µg/mL,[1]; stabilizer concentration 5.0 g/l; pH 6.0; […]; 20° C. for 2 days; read-out: % Residual Activity,86%
same,remaining activity at 20000 µg/mL,[1]; [13],70%
CCCCCC(N)=O [n-Capronamide],activity at 2000 µg/mL,[1]; [4],75%
CCCCCC#N [n-Capronitrile],activity at 2000 µg/mL,[1]; [8],71%
CCCCC(N)=O [n-Valeramide],activity at 2000 µg/mL,[1]; [4],78%
CCCCC#N [n-Valeronitrile],activity at 2000 µg/mL,[1]; [8],82%
NCCC(N)=O [β-Aminopropionamide],activity at 2000 µg/mL,[1]; [4],52%
NCCC(=O)O [β-Aminopropionic acid],activity at 2000 µg/mL,[1]; [5],45%
N#CCCN [β-Aminopropionitrile],activity at 2000 µg/mL,[1]; [8],55%
NC(=O)CCCl [β-Chloropropionamide],activity at 2000 µg/mL,[1]; [4],68%
N#CCCCl [β-Chloropropionitrile],activity at 2000 µg/mL,[1]; [8],63%
NC(=O)CCO [β-Hydroxypropionamide],activity at 2000 µg/mL,[1]; [4],61%
N#CCCO [β-Hydroxypropionitrile],activity at 2000 µg/mL,[1]; [8],78%
